In PubChem BioAssay (NCI):
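Each compound was tested at five concentrations against cells in 96-well plates for 48 hours. At the GI50, growth is halved. The concentration for full growth arrest is given as TGI.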

Assays:
Test in all cases: DTP human tumour cell line panel, 48 h
[1] = tested on: SR leukemia
[2] = tested on: 786-0 renal
[3] = tested on: SK-OV-3 ovarian
[4] = tested on: LOX IMVI melanoma
[5] = tested on: MDA-MB-435
[6] = tested on: HS 578T breast
[7] = tested on: SK-MEL-5 melanoma
[8] = tested on: UACC-62 melanoma
[9] = tested on: SN12C renal

Structure (SMILES)	TGI [1] [µM]	TGI [2] [µM]	TGI [3] [µM]	TGI [4] [µM]	TGI [5] [µM]	TGI [6] [µM]	TGI [7] [µM]	TGI [8] [µM]	TGI [9] [µM]	GI50 [1] [µM]	GI50 [3] [µM]	GI50 [5] [µM]	GI50 [6] [µM]
Cc1cc(NS(=O)(=O)c2ccc(Nc3c4ccccc4nc4c(C(=O)NC(CO)(CO)CO)cccc34)cc2)no1	91.4	> 100	> 100	43.1	> 100	52.7	> 100	75.1	78.6	–	–	–	–
O=C(NC1=C(Cl)C(=O)c2ccccc2C1=O)C(=O)c1c(O)c2ccccc2oc1=O	80.6	19	27.4	> 45.9	2.97	> 65	1.6	4.58	14.3	–	–	–	–
Oc1c(NCn2nc(CCCCCCCCc3nn(CNc4ccc5ccccc5c4O)c(=S)o3)oc2=S)ccc2ccccc12	–	> 100	> 100	–	43.2	–	> 100	> 100	> 100	–	–	–	–
Cc1c2oc(=O)c(C#N)cc2c2ccccn12	> 100	> 100	> 100	> 100	> 100	> 100	> 100	> 100	–	–	–	–	–
COc1ccc(Cn2c(=O)c(OS(=O)(=O)C(F)(F)F)c(C)c3cc4ccccc4cc32)cc1	> 100	> 100	> 100	> 100	> 100	> 100	> 100	> 100	> 100	–	–	–	–
CC1(C)CC(=O)C2=C(C1)NC(=S)C(C#N)C2c1ccccc1 (configuration not stated)	–	> 100	> 100	> 100	> 100	> 100	> 100	> 100	> 100	–	–	–	–
Cc1noc(-c2ccc(C(=O)O)[nH]2)c1Br	–	91.9	> 100	–	> 100	> 100	> 100	> 100	–	–	–	–	–
COC(=O)[C@@H]1C=CCN1S(=O)(=O)c1ccc(C)cc1	58.8	> 100	> 100	> 100	39.2	> 100	> 100	> 100	> 100	–	–	–	–
C/C(=N\Nc1nc2cc(F)ccc2s1)c1ccccn1	> 100	> 39	5.37	–	> 100	–	5.49	1.46	> 43.8	–	–	–	–
O=C(NNC(=O)c1ccc(Cl)cc1NC(=O)C12CC3CC(CC(C3)C1)C2)c1ccc(Cl)cc1	63.8	56.1	60.3	37.7	35.6	46.6	36.5	55.8	> 100	–	–	–	–
Oc1ccc(Nc2nc(Cl)c3[nH]cnc3n2)cc1	> 100	> 100	> 100	> 100	> 100	> 100	> 100	> 100	> 100	–	–	–	–
COc1c(NC(C)=O)c2ccccc2c2ccccc12	> 100	> 100	–	> 100	> 100	> 100	> 100	> 100	> 100	–	–	–	–
CC(=O)c1c(-c2ccco2)c(C#N)c(=S)n(C2OC(CO)C(O)C(O)C2O)c1C (configuration not stated)	> 100	–	> 100	> 100	> 100	> 100	> 100	> 100	> 100	–	–	–	–
COc1ccc(-c2nc(-c3cnccn3)n(C/C=C/c3ccccc3)n2)cc1	> 100	46.5	> 100	> 100	> 100	–	> 100	> 100	> 100	–	–	–	–
C=C1c2nc3ccccc3n2C=C(c2ccccc2)N1c1ccc(C)cc1	> 100	> 100	> 100	> 100	> 100	–	> 100	> 100	> 100	–	–	–	–
CC1=NN(c2ccccc2)C(=O)/C1=C\c1c(C)[nH]n(-c2ccccc2)c1=O	> 100	> 100	> 100	–	> 100	> 100	> 100	> 100	> 100	–	–	–	–
Cc1oc(N)c(S(=O)(=O)/C(C#N)=C/c2ccccc2[N+](=O)[O-])c1C	40.2	92.6	> 100	28.5	> 100	–	38.1	46.9	47.8	–	–	–	–
C=CC(C)(C)/C(=C\CO[Si](C(C)C)(C(C)C)C(C)C)C(=O)N(C)c1ccccc1I	27.7	27.6	33.1	27.4	73.9	27.1	32.1	28.7	29.7	–	–	–	–
C(=Nc1ccc(-c2nc3ccccc3s2)cc1)c1cccs1	> 100	> 100	> 100	> 100	> 100	> 100	> 100	> 100	> 100	–	–	–	–
O=C1CC(c2cccc([N+](=O)[O-])c2)C2(C(=O)NC(=S)NC2=O)C(c2cccc([N+](=O)[O-])c2)C1 (configuration not stated)	> 100	> 100	> 100	34	66.2	84.3	> 100	60.6	52.3	–	–	–	–
CC(Cl)(CCC(Cl)C(C)(C)Cl)C(=O)CBr (configuration not stated)	6.54	20.7	26.9	5.76	30.6	58.1	21	22.7	28.7	–	–	–	–
CC(C)(C)c1cc(C(C)(C)C)c(SC2OC(CO)C(O)C(O)C2O)c(O)c1O (configuration not stated)	> 53	30.4	32.9	22.9	21	11.6	18.6	4.99	25.8	–	–	–	–
COc1cc(/C=C2\N=C(c3ccccc3)N(c3cc4cc(Sc5ccccc5)ccc4[nH]3)C2=O)ccc1O	20.4	> 50	–	> 50	5.56	–	> 50	> 50	> 50	–	–	–	–
COc1cccc(C2C(C#N)=C(N)Oc3cc(OCCCCCC[P+](c4ccccc4)(c4ccccc4)c4ccccc4)ccc32)c1 (configuration not stated)	1.92	–	3.26	–	1.31	2.78	–	–	–	0.36	1.41	0.357	0.608
